Experimental data from patent US9877956B2, “Antiviral compounds and methods of use thereof” (Trana Discovery, Inc., priority 2014, dated 2018).
Converted amounts (≈) assume the structure as drawn. “And” between values parts separate entries of the source, which are not always exact repeats. Equal values may be shown once.

What was measured:
Format in all cases: cell-based
HIV-1 92/HT/599 = HIV-1 92/HT/599 replication in human PBMCs, reverse transcriptase in culture supernatants (RLU); settings: for RLU (Relative Light Units), SAMPLE: individual samples, listed as Trana 156
Procedure: In these studies, PHA-P stimulated PBMCs from three donors were pooled together and re-suspended in fresh tissue culture medium at 1×10^6 cells/mL and plated in the interior wells of a 96 well round bottom microplate at 50µl/well. A 100µL volume of 9 concentrations of compound serially diluted were transferred to the round-bottom 96 well plate containing the cells in triplicate. Fifty microliters (µL) of HIV-1 at a pre-determined dilution was added. Each plate contained cell control wells and virus control wells in parallel with the experimental wells. After 7 days in culture, efficacy was evaluated by measuring the reverse transcriptase in the culture supernatants and the cells were stained with the tetrazolium dye XTT to evaluate cytotoxicity.

PBMC = experiment: Toxicity in PBMC (Cell Titer 96); settings: for % CC: O.D. relative to cell control; for TOXICITY VALUES (Cell Titer 96 - O.D. @ 490/650 nm), SAMPLE: individual samples
From the text: (§1) These compounds were further screened for activity in HIV-1-infected peripheral blood mononuclear cells (PBMC). The data (experiments were repeated, so duplicates are shown) is summarized in the tables below, and also in FIGS. 4A-B and 5A-B.

[1] = Toxicity in PBMC (Cell Titer 96); settings: human, peripheral blood mononuclear cells (PBMC); PBMC, Cell Titer 96
From the text: as §1

Question: What does the source list for CC1(C)OC(=O)C(=Cc2ccc(I)o2)C(=O)O1 [HIT #156]?
Answer: RLU (Relative Light Units), SAMPLE (HIV-1 92/HT/599; 0.32 μg/ml): 9520.0 RLU and 22416.0 RLU and 22210.0 RLU; % Virus Control (HIV-1 92/HT/599; 1 μg/ml): 110.39%; Antiviral Test Values Mean RLU (HIV-1 92/HT/599; 1 μg/ml): 21291.7 RLU; RLU (Relative Light Units), SAMPLE (HIV-1 92/HT/599; 1 μg/ml): 24338.0 RLU and 22848.0 RLU and 16689.0 RLU; % Virus Control (HIV-1 92/HT/599; 3.16 μg/ml): 62.76%; Antiviral Test Values Mean RLU (HIV-1 92/HT/599; 3.16 μg/ml): 12105.7 RLU; RLU (Relative Light Units), SAMPLE (HIV-1 92/HT/599; 3.16 μg/ml): 9530.0 RLU and 14041.0 RLU and 12746.0 RLU; % Virus Control (HIV-1 92/HT/599; 9.99 μg/ml): 4.15%; Antiviral Test Values Mean RLU (HIV-1 92/HT/599; 9.99 μg/ml): 800.0 RLU; RLU (Relative Light Units), SAMPLE (HIV-1 92/HT/599; 9.99 μg/ml): 138.0 RLU and 48.0 RLU and 2214.0 RLU; % Virus Control (HIV-1 92/HT/599; 31.6 μg/ml): 0.21%; Antiviral Test Values Mean RLU (HIV-1 92/HT/599; 31.6 μg/ml): 41.3 RLU; RLU (Relative Light Units), SAMPLE (HIV-1 92/HT/599; 31.6 μg/ml): 46.0 RLU and 42.0 RLU and 36.0 RLU; % Virus Control (HIV-1 92/HT/599; 100 μg/ml): 0.31%; Antiviral Test Values Mean RLU (HIV-1 92/HT/599; 100 μg/ml): 60.7 RLU; RLU (Relative Light Units), SAMPLE (HIV-1 92/HT/599; 100 μg/ml): 68.0 RLU and 62.0 RLU and 52.0 RLU; EC 25% (HIV-1 92/HT/599; HIV-1 92/HT/599, human PBMCs): 2.35 mg/L (≈ 6.75 µM); EC 95% (HIV-1 92/HT/599; HIV-1 92/HT/599, human PBMCs): 9.82 mg/L (≈ 28.2 µM); EC50 (HIV-1 92/HT/599; Human immunodeficiency virus 1, PBMC, read-out: EC50 (EC 50%), HIV-1 92/HT/599, human PBMCs): 4.06 mg/L (≈ 11.7 µM); Therapeutic Index (TI) 25% (HIV-1 92/HT/599; TC/EC at 25%): 5.23; Therapeutic Index (TI) 50% (HIV-1 92/HT/599; TC/EC at 50%): 4.43; Therapeutic Index (TI) 95% (HIV-1 92/HT/599; TC/EC at 95%): <10.18; % CC (PBMC; 0.01 μM): 110.7% and 108.3%; TOXICITY VALUES (Cell Titer 96 - O.D. @ 490/650 nm), SAMPLE (PBMC; 0.01 μM): 2.344 O.D. and 1.718 O.D. and 1.852 O.D. and 0.687 O.D. and 1.030 O.D. and 0.777 O.D.; % CC (PBMC; 0.03 μM): 111.8% and 118.7%; TOXICITY VALUES (Cell Titer 96 - O.D. @ 490/650 nm), SAMPLE (PBMC; 0.03 μM): 2.336 O.D. and 1.807 O.D. and 1.831 O.D. and 0.821 O.D. and 1.115 O.D. and 0.798 O.D.; TOXICITY VALUES (Cell Titer 96 - O.D. @ 490/650 nm), MEAN (PBMC; 0.10 μM): 1.952 O.D. and 0.991 O.D.; % CC (PBMC; 0.10 μM): 109.6% and 129.1%; TOXICITY VALUES (Cell Titer 96 - O.D. @ 490/650 nm), SAMPLE (PBMC; 0.10 μM): 2.142 O.D. and 1.855 O.D. and 1.858 O.D. and 1.098 O.D. and 1.053 O.D. and 0.822 O.D.; TOXICITY VALUES (Cell Titer 96 - O.D. @ 490/650 nm), MEAN (PBMC; 0.32 μM): 1.937 O.D. and 1.031 O.D.; % CC (PBMC; 0.32 μM): 108.8% and 134.3%; TOXICITY VALUES (Cell Titer 96 - O.D. @ 490/650 nm), SAMPLE (PBMC; 0.32 μM): 2.234 O.D. and 1.808 O.D. and 1.768 O.D. and 1.094 O.D. and 1.234 O.D. and 0.765 O.D.; TOXICITY VALUES (Cell Titer 96 - O.D. @ 490/650 nm), MEAN (PBMC; 1.00 μM): 1.882 O.D. and 1.010 O.D.; % CC (PBMC; 1.00 μM): 105.7% and 131.5%; TOXICITY VALUES (Cell Titer 96 - O.D. @ 490/650 nm), SAMPLE (PBMC; 1.00 μM): 2.065 O.D. and 1.819 O.D. and 1.762 O.D. and 1.173 O.D. and 1.067 O.D. and 0.789 O.D.; TOXICITY VALUES (Cell Titer 96 - O.D. @ 490/650 nm), MEAN (PBMC; 3.16 μM): 1.914 O.D. and 1.060 O.D.; % CC (PBMC; 3.16 μM): 107.5% and 138.1%; TOXICITY VALUES (Cell Titer 96 - O.D. @ 490/650 nm), SAMPLE (PBMC; 3.16 μM): 2.179 O.D. and 1.770 O.D. and 1.792 O.D. and 1.161 O.D. and 1.175 O.D. and 0.845 O.D.; TOXICITY VALUES (Cell Titer 96 - O.D. @ 490/650 nm), MEAN (PBMC; 10.0 μM): 1.924 O.D. and 0.976 O.D.; % CC (PBMC; 10.0 μM): 108.1% and 127.1%; TOXICITY VALUES (Cell Titer 96 - O.D. @ 490/650 nm), SAMPLE (PBMC; 10.0 μM): 2.172 O.D. and 1.791 O.D. and 1.810 O.D. and 1.001 O.D. and 0.993 O.D. and 0.934 O.D.; TOXICITY VALUES (Cell Titer 96 - O.D. @ 490/650 nm), MEAN (PBMC; 31.6 μM): 1.891 O.D. and 0.979 O.D.; % CC (PBMC; 31.6 μM): 106.2% and 127.5%; TOXICITY VALUES (Cell Titer 96 - O.D. @ 490/650 nm), SAMPLE (PBMC; 31.6 μM): 2.078 O.D. and 1.741 O.D. and 1.855 O.D. and 0.997 O.D. and 1.014 O.D. and 0.926 O.D.; TOXICITY VALUES (Cell Titer 96 - O.D. @ 490/650 nm), MEAN (PBMC; 100 μM): 1.613 O.D. and 0.847 O.D.; % CC (PBMC; 100 μM): 90.6% and 110.3%; TOXICITY VALUES (Cell Titer 96 - O.D. @ 490/650 nm), SAMPLE (PBMC; 100 μM): 1.651 O.D. and 1.594 O.D. and 0.795 O.D. and 0.787 O.D. and 0.978 O.D.; TC 90% (PBMC; PBMC, Cell Titer 96): >100 µM; TC 95% (PBMC; PBMC, Cell Titer 96): >100 µM; CC50 [1]: > 100 µM
